Test results from the supplement of paper PMC10307832.

Legend:
Assay in all cases: relative viability (nuclei count vs DMSO), 5 days (fraction); higher = more cells survive
MK-2206 + Trametinib = compound: NC1(c2ccc(-c3nc4ccn5c(=O)[nH]nc5c4cc3-c3ccccc3)cc2)CCC1 [MK-2206] + CC(=O)Nc1cccc(-n2c(=O)n(C3CC3)c(=O)c3c(Nc4ccc(I)cc4F)n(C)c(=O)c(C)c32)c1 [Trametinib] (partner 0.02 µM)
How it was run: (§1)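 Relative viability was taken as the ratio of nuclei in treated wells to nuclei in vehicle wells. Lung cancer cell lines in 1536-well plates received compounds by pin tool one day after seeding, either one drug alone or a fixed anchor-drug dose plus five library-drug doses (not always all listed) in √10 steps. Nuclei were counted on 4× images after 5 days of treatment, and values are medians of duplicate plates.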

MK-2206 + Olaparib = compound: NC1(c2ccc(-c3nc4ccn5c(=O)[nH]nc5c4cc3-c3ccccc3)cc2)CCC1 [MK-2206] + O=C(c1cc(Cc2n[nH]c(=O)c3ccccc23)ccc1F)N1CCN(C(=O)C2CC2)CC1 [Olaparib] (partner 8 µM)
How it was run: as §1

Pictilisib + Crizotinib = compound: CS(=O)(=O)N1CCN(Cc2cc3nc(-c4cccc5[nH]ncc45)nc(N4CCOCC4)c3s2)CC1 [Pictilisib] + C[C@@H](Oc1cc(-c2cnn(C3CCNCC3)c2)cnc1N)c1c(Cl)ccc(F)c1Cl [Crizotinib] (partner 1 µM)
How it was run: as §1

MK-2206 + Dasatinib = compound: NC1(c2ccc(-c3nc4ccn5c(=O)[nH]nc5c4cc3-c3ccccc3)cc2)CCC1 [MK-2206] + Cc1nc(Nc2ncc(C(=O)Nc3c(C)cccc3Cl)s2)cc(N2CCN(CCO)CC2)n1 [Dasatinib] (partner 0.075 µM)
How it was run: as §1

MK-2206 + AZD7762 = compound: NC1(c2ccc(-c3nc4ccn5c(=O)[nH]nc5c4cc3-c3ccccc3)cc2)CCC1 [MK-2206] + NC(=O)Nc1cc(-c2cccc(F)c2)sc1C(=O)N[C@H]1CCCNC1 [AZD7762] (partner 0.2 µM)
How it was run: as §1

Cell Line	relative viability (MK-2206 + Trametinib; first compound 0.01 µM)	relative viability (MK-2206 + Trametinib; first compound 0.03162 µM)	relative viability (MK-2206 + Trametinib; first compound 0.3162 µM)	relative viability (MK-2206 + Trametinib; first compound 1 µM)	relative viability (MK-2206 + Olaparib; first compound 0.01 µM)	relative viability (MK-2206 + Olaparib; first compound 0.03162 µM)	relative viability (MK-2206 + Olaparib; first compound 0.3162 µM)	relative viability (MK-2206 + Olaparib; first compound 1 µM)	relative viability (Pictilisib + Crizotinib; first compound 0.02 µM)	relative viability (Pictilisib + Crizotinib; first compound 0.06325 µM)	relative viability (Pictilisib + Crizotinib; first compound 0.6325 µM)	relative viability (Pictilisib + Crizotinib; first compound 2 µM)	relative viability (MK-2206 + Dasatinib; first compound 0.01 µM)	relative viability (MK-2206 + Dasatinib; first compound 0.03162 µM)	relative viability (MK-2206 + Dasatinib; first compound 0.3162 µM)	relative viability (MK-2206 + Dasatinib; first compound 1 µM)	relative viability (MK-2206 + AZD7762; first compound 0.01 µM)	relative viability (MK-2206 + AZD7762; first compound 0.03162 µM)	relative viability (MK-2206 + AZD7762; first compound 0.3162 µM)	relative viability (MK-2206 + AZD7762; first compound 1 µM)
HCC-827	0.541	0.548	0.491	0.444	0.671	0.678	0.506	0.523	0.901	0.991	0.921	0.548	0.476	0.272	0.258	0.362	0.325	0.184	0.227	0.186
HOP-62	0.381	0.368	0.334	0.328	0.472	0.412	0.574	0.573	1.07	0.972	1.01	0.671	0.592	0.73	0.624	0.665	0.734	0.336	0.437	0.71
LC-2-ad	0.924	0.886	0.933	0.927	0.662	0.73	0.767	0.795	0.443	0.52	0.392	0.359	0.581	0.579	0.505	0.2	0.815	0.868	0.889	0.782
LCLC-97TM1	0.195	0.205	0.191	0.206	0.381	0.351	0.273	0.234	0.236	0.277	0.317	0.159	0.847	0.858	0.893	0.898	0.294	0.12	0.285	0.333
LCLC-103H	0.691	0.635	0.666	0.659	0.548	0.768	0.777	0.731	1.05	1.04	0.882	0.71	0.459	0.497	0.461	0.355	0.751	0.818	0.765	0.712
LK-2	0.826	0.775	0.694	0.602	0.822	0.852	0.664	0.467	0.251	0.23	0.239	0.23	0.231	0.299	0.327	0.19	0.325	0.312	0.259	0.182
LOU-NH91	0.793	0.817	0.77	0.686	0.901	0.98	0.91	0.847	0.725	0.708	0.716	0.571	0.628	0.638	0.571	0.375	0.8	0.751	0.705	0.605
LU99A	0.524	0.537	0.473	0.553	0.283	0.231	0.251	0.287	0.56	0.545	0.44	0.346	0.524	0.733	0.48	0.498	0.376	0.169	0.332	0.362
LXF-289	0.65	0.699	0.68	0.663	1.05	1.04	1.09	1.06	0.862	0.837	0.843	0.752	0.212	0.251	0.254	0.203	1.06	1.01	1.12	1.15
NCI-H23	0.267	0.342	0.345	0.299	0.302	0.326	0.255	0.285	0.424	0.592	0.344	0.354	0.808	0.845	0.787	0.423	0.333	0.192	0.188	0.229
NCI-H322M	0.475	0.505	0.495	0.546	0.778	0.806	0.782	0.874	0.834	0.936	0.878	0.834	0.258	0.268	0.288	0.284	0.58	0.576	0.563	0.516
NCI-H358	0.146	0.145	0.132	0.117	0.61	0.641	0.541	0.56	0.658	0.455	0.607	0.408	0.169	0.167	0.15	0.147	0.628	0.423	0.552	0.609
NCI-H441	0.532	0.447	0.28	0.333	0.588	0.622	0.541	0.338	0.513	0.632	0.504	0.388	0.566	0.503	0.501	0.422	1.27	0.941	1.25	0.869
NCI-H460	0.154	0.193	0.0937	0.0745	0.397	0.465	0.484	0.5	0.956	0.945	0.501	0.0993	0.417	0.579	0.37	0.338	0.692	0.366	0.612	0.644
